Reference: US9156796B2, “Benzoimidazole-carboxylic acid amide derivatives as APJ receptor modulators” (SANOFI, priority 2013, dated 2015)

Each compound was assayed against T1, human apelin receptor (Homo sapiens, UniProt P35414) (assay: Determination of agonism on the human apelin receptor by a calcium fluorescence assay (FLIPR)). Conditions: HEK293 cells stably transfected with human apelin receptor and Giaq protein, Fluo-4 calcium fluorescence, read-out: EC50 (APJ agonism).
T1 construct: expressed in transfected cells
T1 sequence (P35414 1-380): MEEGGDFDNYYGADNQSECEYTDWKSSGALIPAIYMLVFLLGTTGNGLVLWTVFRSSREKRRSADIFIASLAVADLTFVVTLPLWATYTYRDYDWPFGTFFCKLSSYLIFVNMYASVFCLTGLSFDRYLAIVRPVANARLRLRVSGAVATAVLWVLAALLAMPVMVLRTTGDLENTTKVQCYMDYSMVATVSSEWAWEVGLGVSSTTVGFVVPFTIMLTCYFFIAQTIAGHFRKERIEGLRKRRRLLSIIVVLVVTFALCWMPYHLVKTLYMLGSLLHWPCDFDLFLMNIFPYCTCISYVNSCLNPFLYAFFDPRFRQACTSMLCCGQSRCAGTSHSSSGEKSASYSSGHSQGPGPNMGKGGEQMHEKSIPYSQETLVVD
Format: cell-based
Outline: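 Agonist EC50s come from peak intracellular calcium transients recorded by FLIPR Tetra, scaled to the 1 μM apelin-13 maximum per plate. Test system: HEK293 stably transfected with human apelin receptor plus Giaq, Fluo-4-loaded (4 μM, 1 h, 37 °C, pH 7.4 buffer with probenecid); ≥7 concentrations, triplicates.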
Compound `CC(C)C[C@@H](CC(=O)O)NC(=O)c1ccc2c(c1)nc(Cc1cccs1)n2C1CCCCC1C` (single isomer, unassigned) [Example 438] has an EC50 of 661 nM.
Work on `CCC(CC)n1c(Cc2cccs2)nc2cc(C(=O)N[C@@H](CC3CCCCC3)C(=O)O)ccc21` [Example 125, (S)-3-Cyclohexyl-2-{[1-(1-ethyl-propyl)-2-thiophen-2-ylmethyl-1H-benzoimidazole-5-carbonyl]-amino}-propionic acid] yielded an EC50 of 78 nM.
`CCC(CC)n1c(Cc2cscn2)nc2cc(C(=O)N[C@@H](CC(C)C)C(N)=O)ccc21` [Example 172, 1-(1-Ethyl-propyl)-2-thiazol-4-ylmethyl-1H-benzoimidazole-5-carboxylic acid ((S)-1-carbamoyl-3-methyl-butyl)-amide] showed an EC50 of 4890 nM.
`CCCCN1CCC(CNC(=O)[C@H](CC(C)C)NC(=O)c2ccc3c(c2)nc(Cc2cccs2)n3C(CC)CC)CC1` [Example 331, 1-(1-Ethyl-propyl)-2-thiophen-2-ylmethyl-1H-benzoimidazole-5-carboxylic acid {(S)-1-[(1-butyl-piperidin-4-ylmethyl)-carbamoyl]-3-methyl-butyl}-amide] showed an EC50 of 267 nM.
`CCC(CC)n1c(Cc2cccs2)nc2cc(C(=O)N[C@@H](CC(C)C)C(=O)N3CCC(O)C3)ccc21` (stereo partly drawn) [Example 407, 1-(1-Ethyl-propyl)-2-thiophen-2-ylmethyl-1H-benzoimidazole-5-carboxylic acid [(S)-1-(3-hydroxy-pyrrolidine-1-carbonyl)-3-methyl-butyl]-amide] was tested, and the EC50 was 708 nM.
Work on `CCC(CC)n1c(Cc2ccco2)nc2cc(C(=O)NC(C)(CC(C)C)C(=O)O)ccc21` (stereo not shown) [Example 13, 2-{[1-(1-Ethyl-propyl)-2-furan-2-ylmethyl-1H-benzoimidazole-5-carbonyl]-amino}-2,4-dimethyl-pentanoic acid] yielded an EC50 of 535 nM.
Compound `CCC(CC)n1c(Cc2cccs2)nc2cc(C(=O)N[C@@H](CC(C)C)C(=O)NCC3CCCCO3)ccc21` (stereo partly drawn) [Example 386, 1-(1-Ethyl-propyl)-2-thiophen-2-ylmethyl-1H-benzoimidazole-5-carboxylic acid {(S)-3-methyl-1-[(tetrahydro-pyran-2-ylmethyl)-carbamoyl]-butyl}-amide] has an EC50 of 2230 nM.
`CCC(CC)n1c(Cc2cccs2)nc2cc(C(=O)NC(Cc3ccc(C(F)(F)F)cc3)C(=O)O)ccc21` (stereo not shown) [Example 31, 2-{[1-(1-Ethyl-propyl)-2-thiophen-2-ylmethyl-1H-benzoimidazole-5-carbonyl]-amino}-3-(4-trifluoromethyl-phenyl)-propionic acid] showed an EC50 of 4110 nM.
In the case of `CCC(CC)n1c(Cc2cccs2)nc2cc(C(=O)N[C@@H](CC(C)C)C(=O)NCc3cccc(OC)c3)ccc21` [Example 364, 1-(1-Ethyl-propyl)-2-thiophen-2-ylmethyl-1H-benzoimidazole-5-carboxylic acid [(S)-1-(3-methoxy-benzylcarbamoyl)-3-methyl-butyl]-amide], the EC50 is reported as 13500 nM.
For `CC(C)C[C@H](NC(=O)c1ccc2c(c1)nc(Cc1cccs1)n2C1CCCCC1C)C(=O)O` (single isomer, unassigned) [Example 413], the EC50 was 1020 nM.
For `CC(C)C[C@H](NC(=O)c1ccc2c(c1)nc(Cc1ccccc1)n2C1CCCCC1)C(=O)O` [Example 148, (S)-2-[(2-Benzyl-1-cyclohexyl-1H-benzoimidazole-5-carbonyl)-amino]-4-methyl-pentanoic acid], the EC50 was 15000 nM.
`CCC(CC)n1c(Cc2cccs2)nc2cc(C(=O)N[C@@H](CC(C)C)C(=O)N3CCN(C4CCCC4)CC3)ccc21` [Example 321, 1-(1-Ethyl-propyl)-2-thiophen-2-ylmethyl-1H-benzoimidazole-5-carboxylic acid [(S)-1-(4-cyclopentyl-piperazine-1-carbonyl)-3-methyl-butyl]-amide] showed an EC50 of 1520 nM.
With `CC(C)C[C@@H](CC(=O)O)NC(=O)c1ccc2c(c1)nc(Cc1ccco1)n2C1CCCCC1C` (stereo partly drawn) [Example 99, (S)-3-{[2-Furan-2-ylmethyl-1-(2-methyl-cyclohexyl)-1H-benzoimidazole-5-carbonyl]-amino}-5-methyl-hexanoic acid] the EC50 was 46 nM.
`CC(C)CC(C)n1c(Cc2cccs2)nc2cc(C(=O)N[C@@H](CC(C)C)C(=O)O)ccc21` (stereo partly drawn) [Example 166, (S)-2-{[1-(1,3-Dimethyl-butyl)-2-thiophen-2-ylmethyl-1H-benzoimidazole-5-carbonyl]-amino}-4-methyl-pentanoic acid] showed an EC50 of 3040 nM.
With `Cc1ccc(Cc2nc3cc(C(=O)N[C@@H](CC(C)C)C(=O)O)ccc3n2C2CCCCC2C)s1` (stereo partly drawn) [Example 144, (S)-4-Methyl-2-{[1-(2-methyl-cyclohexyl)-2-(5-methyl-thiophen-2-ylmethyl)-1H-benzoimidazole-5-carbonyl]-amino}-pentanoic acid] the EC50 was 23000 nM.
For `CCC(CC)n1c(Cc2cccs2)nc2cc(C(=O)N[C@@H](CC(C)C)C(=O)NCCOc3ccccc3)ccc21` [Example 366, 1-(1-Ethyl-propyl)-2-thiophen-2-ylmethyl-1H-benzoimidazole-5-carboxylic acid [(S)-3-methyl-1-(2-phenoxy-ethylcarbamoyl)-butyl]-amide], the EC50 was 16500 nM.
For `CCC(CC)n1c(Cc2cccs2)nc2cc(C(=O)N[C@@H](CC(C)C)C(=O)N3CCN(CC(C)C)CC3)ccc21` [Example 272, 1-(1-Ethyl-propyl)-2-thiophen-2-ylmethyl-1H-benzoimidazole-5-carboxylic acid [(S)-1-(4-isobutyl-piperazine-1-carbonyl)-3-methyl-butyl]-amide], the EC50 was 2770 nM.
In the case of `CCC(CC)n1c(Cc2cccs2)nc2cc(C(=O)N[C@@H](CC(C)C)C(=O)N(C)Cc3ccc(OC)cc3)ccc21` [Example 372, 1-(1-Ethyl-propyl)-2-thiophen-2-ylmethyl-1H-benzoimidazole-5-carboxylic acid {(S)-1-[(4-methoxy-benzyl)-methyl-carbamoyl]-3-methyl-butyl}-amide], the EC50 is reported as 13200 nM.
In the case of `CC(C)C[C@H](NC(=O)c1ccc2c(c1)nc(Cc1cccs1)n2C1CCCCC1)C(N)=O` [Example 168, 1-Cyclohexyl-2-thiophen-2-ylmethyl-1H-benzoimidazole-5-carboxylic acid ((S)-1-carbamoyl-3-methyl-butyl)-amide], the EC50 is reported as 4530 nM.
`CCC(CC)n1c(Cc2cccs2)nc2cc(C(=O)N[C@@H](CC(C)C)C(=O)NCCS(N)(=O)=O)ccc21` [Example 401, 1-(1-Ethyl-propyl)-2-thiophen-2-ylmethyl-1H-benzoimidazole-5-carboxylic acid [(S)-3-methyl-1-(2-sulfamoyl-ethylcarbamoyl)-butyl]-amide] showed an EC50 of 600 nM.
With `CCC(CC)n1c(Cc2cscn2)nc2cc(C(=O)N[C@@H](CC(C)C)C(=O)O)ccc21` [Example 84, (S)-2-{[1-(1-Ethyl-propyl)-2-thiazol-4-ylmethyl-1H-benzoimidazole-5-carbonyl]-amino}-4-methyl-pentanoic acid] the EC50 was 2950 nM.
Work on `CCC(CC)n1c(Cc2cccs2)nc2cc(C(=O)N[C@@H](CC(C)C)C(=O)Nc3ccc(CN4CCC(C)CC4)cc3)ccc21` [Example 283, 1-(1-Ethyl-propyl)-2-thiophen-2-ylmethyl-1H-benzoimidazole-5-carboxylic acid {(S)-3-methyl-1-[4-(4-methyl-piperidin-1-ylmethyl)-phenylcarbamoyl]-butyl}-amide] yielded an EC50 of 4500 nM.
`CCC(CC)n1c(Cc2cccs2)nc2cc(C(=O)N[C@@H](CC(C)C)C(=O)NC3CCN(CC)CC3)ccc21` [Example 340, 1-(1-Ethyl-propyl)-2-thiophen-2-ylmethyl-1H-benzoimidazole-5-carboxylic acid [(S)-1-(1-ethyl-piperidin-4-ylcarbamoyl)-3-methyl-butyl]-amide] showed an EC50 of 185 nM.
`CCC(CC)n1c(Cc2cccs2)nc2cc(C(=O)N[C@H](Cc3noc(-c4ccccc4)n3)CC(C)C)ccc21` [Example 474, 1-(1-Ethyl-propyl)-2-thiophen-2-ylmethyl-1H-benzoimidazole-5-carboxylic acid [(S)-3-methyl-1-(5-phenyl-[1,2,4]oxadiazol-3-ylmethyl)-butyl]-amide] was tested, and the EC50 was 34500 nM.
`CCC(CC)n1c(Cc2cccs2)nc2cc(C(=O)N[C@@H](CCC(C)C)C(=O)O)ccc21` [Example 130, (S)-2-{[1-(1-Ethyl-propyl)-2-thiophen-2-ylmethyl-1H-benzoimidazole-5-carbonyl]-amino}-5-methyl-hexanoic acid] gave an EC50 of 293 nM.
`CCC(CC)n1c(Cc2cccs2)nc2cc(C(=O)NC(C)(C(=O)O)C(C)C)ccc21` (stereo not shown) [Example 5, 2-{[1-(1-Ethyl-propyl)-2-thiophen-2-ylmethyl-1H-benzoimidazole-5-carbonyl]-amino}-2,3-dimethyl-butyric acid] showed an EC50 of 9870 nM.
For `CCC(CC)n1c(Cc2cccs2)nc2cc(C(=O)N[C@@H](CC(C)C)C(=O)NCCC3CCOCC3)ccc21` [Example 382, 1-(1-Ethyl-propyl)-2-thiophen-2-ylmethyl-1H-benzoimidazole-5-carboxylic acid {(S)-3-methyl-1-[2-(tetrahydro-pyran-4-yl)-ethylcarbamoyl]-butyl}-amide], the EC50 was 3560 nM.
In the case of `CCC(CC)n1c(Cc2cccs2)nc2cc(C(=O)N[C@H](CO)CC3CCCCC3)ccc21` [Example 177, 1-(1-Ethyl-propyl)-2-thiophen-2-ylmethyl-1H-benzoimidazole-5-carboxylic acid ((S)-1-cyclohexylmethyl-2-hydroxy-ethyl)-amide], the EC50 is reported as 2420 nM.
